The assay has as its system CD2F1 mice, L1210 leukemia ip, survival T/C. In words: NCI In Vivo Anticancer Drug Screen. Data for tumor model L1210 Leukemia (intraperitoneal) in CD2F1 (CDF1) mice. As to conditions: higher = longer survival. The method in brief: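 In this screen, transplantable tumors were grown in mice given either the compound or its vehicle. Results were expressed as the treated measurement relative to the control measurement.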

Setting [1] is: endpoint: mean survival time, dose: 100.0 mg/kg/injection, schedule: Q01DX009 (ip), vehicle: saline with Tween-80.
[2] abbreviates: endpoint: mean survival time, dose: 100.0 mg/kg/injection, schedule: Q04DX003 (ip), vehicle: saline with Tween-80.
Setting [3] is: endpoint: mean survival time, dose: 200.0 mg/kg/injection, schedule: Q01DX009 (ip), vehicle: saline with Tween-80.
[4] abbreviates: endpoint: mean survival time, dose: 200.0 mg/kg/injection, schedule: Q04DX003 (ip), vehicle: saline with Tween-80.
The mark [5] stands for this setting: endpoint: mean survival time, dose: 400.0 mg/kg/injection, schedule: Q01DX009 (ip), vehicle: saline with Tween-80.
The mark [6] stands for this setting: endpoint: mean survival time, dose: 400.0 mg/kg/injection, schedule: Q04DX003 (ip), vehicle: saline with Tween-80.
Where [7] appears, read: endpoint: mean survival time, dose: 50.0 mg/kg/injection, schedule: Q04DX003 (ip), vehicle: saline with Tween-80.
Setting [8] is: endpoint: mean survival time, dose: 100.0 mg/kg/injection, schedule: Q01DX009 (ip), vehicle: saline.
Setting [9] is: endpoint: mean survival time, dose: 200.0 mg/kg/injection, schedule: Q01DX009 (ip), vehicle: saline.
Where [10] appears, read: endpoint: mean survival time, dose: 400.0 mg/kg/injection, schedule: Q01DX009 (ip), vehicle: saline.
Setting [11] is: endpoint: mean survival time, dose: 100.0 mg/kg/injection, schedule: Q01DX001 (ip), vehicle: saline with Tween-80.
[12] abbreviates: endpoint: mean survival time, dose: 200.0 mg/kg/injection, schedule: Q01DX001 (ip), vehicle: saline with Tween-80.
Setting [13] is: endpoint: mean survival time, dose: 400.0 mg/kg/injection, schedule: Q01DX001 (ip), vehicle: saline with Tween-80.
Setting [14] is: endpoint: mean survival time, dose: 100.0 mg/kg/injection, schedule: Q04DX003 (ip), vehicle: saline.
[15] abbreviates: endpoint: mean survival time, dose: 200.0 mg/kg/injection, schedule: Q04DX003 (ip), vehicle: saline.
Setting [16] is: endpoint: mean survival time, dose: 400.0 mg/kg/injection, schedule: Q04DX003 (ip), vehicle: saline.

Molecules are shown by their SMILES. Values joined by “and” are separate entries in the source; they are usually repeats but may differ in a detail not shown here. Equal entries are not always repeated. Inconclusive results and toxic doses are left out.

This is an account of results in PubChem BioAssay AID256 (DTP/NCI, 2004).

With `CCNC(=O)c1ccccc1N=NN(C)C`, the T/C is, setting by setting: (endpoint: mean survival time, dose: 18.7 mg/kg/injection, schedule: Q01DX009 (ip), vehicle: Klucel (hydroxypropylcellulose) (HPC)) 105 % of control; (endpoint: mean survival time, dose: 18.75 mg/kg/injection, schedule: Q01DX009 (ip), vehicle: Klucel (hydroxypropylcellulose) (HPC)) 92 % of control and 97 % of control.

In the case of `O/N=C1/CCCc2ccccc21`, the T/C by setting is: under setting [1], 98 % of control; under setting [2], 100 % of control; under setting [3], 101 % of control; under setting [4], 97 % of control; under setting [5], 104 % of control; under setting [6], 100 % of control.

`CCCCCCCN(CCCCCCC)CC(OC(C)=O)c1cc2ccccc2c2cc(Br)ccc12` (stereo unspecified): the T/C runs as follows: under setting [2], 98 % of control; under setting [4], 101 % of control; under setting [6], 104 % of control.

For the molecule `CC(C)(C)c1cccc(C(C)(C)C)c1OC(=O)NS(=O)(=O)c1ccccc1`, the T/C (endpoint: mean survival time, dose: 12.5 mg/kg/injection, schedule: Q04DX003 (ip), vehicle: acetone) was 101 % of control; the T/C (endpoint: mean survival time, dose: 25.0 mg/kg/injection, schedule: Q04DX003 (ip), vehicle: acetone) is 101 % of control; the T/C (endpoint: mean survival time, dose: 50.0 mg/kg/injection, schedule: Q04DX003 (ip), vehicle: acetone) was 113 % of control.

Take `O=C(c1ccc(Cl)cc1)C(O)c1ccc(Cl)cc1` (stereo unspecified): the T/C is 93 % of control under setting [1]; 100 % of control under setting [2]; 98 % of control under setting [3]; 96 % of control under setting [4]; 107 % of control under setting [5]; 91 % of control under setting [6].

For `C=CCNc1ncnc2c1ncn2C1OC(CO)C(O)C1O` (stereo unspecified), the T/C (endpoint: mean survival time, dose: 75.0 mg/kg/injection, schedule: Q01DX001 (ip), vehicle: other) is 112 % of control and the T/C (endpoint: mean survival time, dose: 150.0 mg/kg/injection, schedule: Q01DX001 (ip), vehicle: other) was 103 % of control.

With `[N-]=[N+]=NC1=C(c2ccccc2)C(=O)C=C(c2ccccc2)C1=O`, the T/C is, setting by setting: (endpoint: mean survival time, dose: 25.0 mg/kg/injection, schedule: Q04DX003 (ip), vehicle: saline with Tween-80) 94 % of control; under setting [7], 94 % of control; under setting [2], 101 % of control and 102 % of control; under setting [6], 101 % of control.

`O=C1CSC(c2ccccc2)N1` (stereo unspecified): the T/C is 102 % of control under setting [7], 100 % of control under setting [2] and 100 % of control under setting [4].

With `c1ccc2c(c1)Sc1cnccc1N2CC1CO1` (stereo unspecified), the T/C runs as follows: under setting [8], 102 % of control; under setting [9], 102 % of control; under setting [10], 104 % of control.

As for `O=C(SSC(=O)c1ccccc1)c1ccccc1`, the T/C is, setting by setting: under setting [1], 95 % of control; under setting [2], 98 % of control; under setting [3], 103 % of control; under setting [4], 102 % of control; under setting [5], 91 % of control; under setting [6], 96 % of control.

On to `Nc1ccccc1Sc1ccncc1[N+](=O)[O-]`, for which the T/C reads like this: under setting [1], 96 % of control; under setting [2], 90 % of control; under setting [3], 100 % of control; under setting [4], 95 % of control; under setting [5], 101 % of control; under setting [6], 97 % of control.

`Nc1ccc(S(=O)(=O)Nc2cnc3c(Cl)cccc3n2)cc1`: the T/C is 98 % of control (endpoint: median survival time, dose: 100.0 mg/kg/injection, schedule: Q01DX005 (ip), vehicle: DMSO); 98 % of control (endpoint: median survival time, dose: 200.0 mg/kg/injection, schedule: Q01DX005 (ip), vehicle: DMSO); 98 % of control (endpoint: median survival time, dose: 400.0 mg/kg/injection, schedule: Q01DX005 (ip), vehicle: DMSO); 105 % of control (endpoint: median survival time, dose: 800.0 mg/kg/injection, schedule: Q01DX005 (ip), vehicle: DMSO).

For the molecule `CCOC(=O)c1ccc(NC(=O)NC)cc1`, the T/C is 93 % of control under setting [1]; 92 % of control under setting [2]; 93 % of control under setting [3]; 93 % of control under setting [4]; 93 % of control under setting [5]; 101 % of control under setting [6].

As to `Cc1cc(O)c(C)c(C)c1N=Nc1ccccc1`, the T/C was 97 % of control (endpoint: mean survival time, dose: 100.0 mg/kg/injection, schedule: Q01DX005 (ip), vehicle: saline with Tween-80); 97 % of control (endpoint: mean survival time, dose: 200.0 mg/kg/injection, schedule: Q01DX005 (ip), vehicle: saline with Tween-80); 97 % of control (endpoint: mean survival time, dose: 400.0 mg/kg/injection, schedule: Q01DX005 (ip), vehicle: saline with Tween-80).

On to `CS(=O)(=O)OCCCN(CCCOS(C)(=O)=O)c1ccc(C=Nc2ccc(-c3csc(COc4ccc(Cl)cc4Cl)n3)cc2)cc1`, for which the T/C was 86 % of control under setting [11], 93 % of control under setting [1], 86 % of control under setting [12] and 89 % of control under setting [13].

Regarding `Nc1ccc(-c2ccc(N)c([N+](=O)[O-])c2)cc1[N+](=O)[O-]`, the T/C is 98 % of control under setting [1]; 86 % of control under setting [2]; 94 % of control under setting [3]; 89 % of control under setting [4]; 95 % of control under setting [5]; 86 % of control under setting [6].

Consider `COc1c(NC(C)=O)cc2c(c1C)OC(C)(C)C=C2`, for which the T/C under setting [1] was 101 % of control and the T/C under setting [3] is 98 % of control.

Take `Nc1cncc([N+](=O)[O-])c1N`: the T/C under setting [11] was 98 % of control, the T/C under setting [12] was 101 % of control and the T/C under setting [13] was 101 % of control.

`C[Si](OCc1ccc(-c2ccccc2)cc1)c1ccccc1`: the T/C reads like this: under setting [8], 99 % of control; under setting [14], 96 % of control; under setting [9], 100 % of control; under setting [15], 93 % of control; under setting [10], 94 % of control; under setting [16], 98 % of control.

With `Nc1ccc(SCCCc2c(N)nc(N)nc2N)cc1`, the T/C (endpoint: mean survival time, dose: 100.0 mg/kg/injection, schedule: Q01DX001 (ip), vehicle: other) is 100 % of control and the T/C (endpoint: mean survival time, dose: 200.0 mg/kg/injection, schedule: Q01DX001 (ip), vehicle: other) was 96 % of control.

Regarding `COC(=O)C(CCCCN)NC(=O)c1ccccc1` (stereo unspecified), the T/C reads like this: under setting [2], 101 % of control; under setting [4], 103 % of control; under setting [6], 101 % of control.

In the case of `N#CC(C#N)=Cc1cccc(CC(O)(C(F)(F)F)C(F)(F)F)n1`, the T/C was 105 % of control under setting [2] and 94 % of control under setting [4].

For `O=S(=O)(Nc1ccc(O)cc1)c1ccccc1`, the T/C reads like this: under setting [1], 103 % of control; under setting [2], 101 % of control; under setting [3], 95 % of control; under setting [4], 103 % of control; under setting [5], 95 % of control; under setting [6], 107 % of control.

In the case of `CC1C2OC2C(C)S1(=O)=O` (stereo unspecified), the T/C is, setting by setting: under setting [11], 100 % of control; (endpoint: mean survival time, dose: 100.0 mg/kg/injection, schedule: Q04DX002 (ip), vehicle: saline with Tween-80) 93 % of control; under setting [12], 101 % of control; (endpoint: mean survival time, dose: 200.0 mg/kg/injection, schedule: Q04DX002 (ip), vehicle: saline with Tween-80) 101 % of control; under setting [13], 101 % of control; (endpoint: mean survival time, dose: 400.0 mg/kg/injection, schedule: Q04DX002 (ip), vehicle: saline with Tween-80) 89 % of control.

For `c1cncc(-c2nc3ccccc3s2)c1`, the T/C reads like this: (endpoint: mean survival time, dose: 100.0 mg/kg/injection, schedule: Q04DX003 (ip), vehicle: Klucel (hydroxypropylcellulose) (HPC)) 103 % of control; (endpoint: mean survival time, dose: 200.0 mg/kg/injection, schedule: Q04DX003 (ip), vehicle: Klucel (hydroxypropylcellulose) (HPC)) 100 % of control; (endpoint: mean survival time, dose: 400.0 mg/kg/injection, schedule: Q04DX003 (ip), vehicle: Klucel (hydroxypropylcellulose) (HPC)) 100 % of control.

Regarding `CCC(CO)C(C)C` (stereo unspecified), the T/C reads like this: under setting [2], 97 % of control; under setting [4], 100 % of control.

On to `O.O.[Co].[Co].[NH-]CC[NH-].[NH-]CC[NH-].[NH-]CC[NH-].[NH-]CC[NH-]`, for which the T/C was 98 % of control (endpoint: mean survival time, dose: 25.0 mg/kg/injection, schedule: Q04DX002 (ip), vehicle: saline) and 106 % of control (endpoint: mean survival time, dose: 50.0 mg/kg/injection, schedule: Q04DX002 (ip), vehicle: saline).

In the case of `CCSC(SCC)[C@H](NC(C)=O)[C@@H](O)[C@H](O)[C@H](O)CO`, the T/C under setting [14] is 101 % of control, the T/C under setting [15] was 98 % of control and the T/C under setting [16] is 95 % of control.

As to `CCC1(OC(=O)CN2CCN(CCO)CC2)C(=O)OCc2c1cc1n(c2=O)Cc2cc3ccccc3nc2-1` (stereo unspecified), the T/C (endpoint: median survival time, dose: 6.25 mg/kg/injection, schedule: Q04DX002 (ip), vehicle: water) was 105 % of control and 108 % of control; the T/C (endpoint: median survival time, dose: 12.5 mg/kg/injection, schedule: Q04DX002 (ip), vehicle: water) was 108 % of control and 112 % of control; the T/C (endpoint: median survival time, dose: 25.0 mg/kg/injection, schedule: Q04DX002 (ip), vehicle: water) was 122 % of control and 110 % of control; the T/C (endpoint: median survival time, dose: 100.0 mg/kg/injection, schedule: Q04DX002 (ip), vehicle: water) was 177 % of control.
